Where “and” joins values, the source holds several entries; their conditions need not be identical. Equal entries are not always repeated. ± gives the expanded uncertainty stated by the source.
Columns and labels:
[1] = DTA
[2] = Molar enthalpy of transition or fusion; settings: DSC
[3] = molar heat capacity at constant pressure; settings: 101.33 kPa

OC1CCCCCCC1 [cyclooctanol]
Settings	Molar enthalpy of transition or fusion, [2] [kcal/mol]	Triple point temperature, [1] [K]
Crystal 1	0.457 ± 0.0765	296.78 ± 0.42
Crystal 2	0.507 ± 0.0765	263.56 ± 0.39

[3], Crystal 1, Large sample (1 g) DSC
Settings	molar heat capacity at constant pressure
261.1 K	235.9 ± 4.1 J/K/mol
261.23 K	236.1 ± 4.1 J/K/mol
264 K	238.7 ± 4.1 J/K/mol and 238.8 ± 4.1 J/K/mol
267 K	241.8 ± 4.2 J/K/mol and 241.9 ± 4.2 J/K/mol
270 K	245.1 ± 4.2 J/K/mol and 245.3 ± 4.3 J/K/mol
273 K	248.9 ± 4.3 J/K/mol and 249 ± 4.3 J/K/mol
276 K	252.7 ± 4.4 J/K/mol and 252.8 ± 4.4 J/K/mol
279 K	256.9 ± 4.5 J/K/mol
282 K	261.4 ± 4.5 J/K/mol and 261.5 ± 4.5 J/K/mol
283.88 K	264.3 ± 4.6 J/K/mol
284.25 K	265.2 ± 4.6 J/K/mol

[3], Liquid
Settings	molar heat capacity at constant pressure
301.94 K, Large sample (1 g) DSC	295.6 ± 5.1 J/K/mol
302.06 K, Large sample (1 g) DSC	295.8 ± 5.1 J/K/mol
305 K, Large sample (1 g) DSC	299.1 ± 5.2 J/K/mol
310 K, Large sample (1 g) DSC	304.6 ± 5.3 J/K/mol
315 K, Large sample (1 g) DSC	310.1 ± 5.4 J/K/mol and 310 ± 5.4 J/K/mol
318.15 K, Small sample (50 mg) DSC	313.1 ± 5.4 J/K/mol
320 K, Large sample (1 g) DSC	315.1 ± 5.5 J/K/mol
323.14 K, Small sample (50 mg) DSC	318.2 ± 5.5 J/K/mol
325 K, Large sample (1 g) DSC	320.2 ± 5.5 J/K/mol
328.14 K, Small sample (50 mg) DSC	323.1 ± 5.6 J/K/mol
330 K, Large sample (1 g) DSC	325 ± 5.6 J/K/mol and 324.9 ± 5.6 J/K/mol
333.14 K, Small sample (50 mg) DSC	327.7 ± 5.7 J/K/mol
335 K, Large sample (1 g) DSC	329.4 ± 5.7 J/K/mol and 329.3 ± 5.7 J/K/mol
338.14 K, Small sample (50 mg) DSC	332.6 ± 5.8 J/K/mol
340 K, Large sample (1 g) DSC	333.7 ± 5.8 J/K/mol
343.14 K, Small sample (50 mg) DSC	337 ± 5.8 J/K/mol
345 K, Large sample (1 g) DSC	338.4 ± 5.9 J/K/mol and 338.3 ± 5.9 J/K/mol
348.13 K, Small sample (50 mg) DSC	341.1 ± 5.9 J/K/mol
350 K, Large sample (1 g) DSC	343 ± 5.9 J/K/mol and 342.9 ± 5.9 J/K/mol
353.13 K, Small sample (50 mg) DSC	345.4 ± 12 J/K/mol
355 K, Large sample (1 g) DSC	347.1 ± 6 J/K/mol and 347 ± 6 J/K/mol
357.87 K, Large sample (1 g) DSC	349.1 ± 6 J/K/mol
357.94 K, Large sample (1 g) DSC	349.1 ± 6 J/K/mol
358.13 K, Small sample (50 mg) DSC	349.5 ± 12 J/K/mol
363.12 K, Small sample (50 mg) DSC	353.5 ± 12 J/K/mol
366.11 K, Small sample (50 mg) DSC	355.8 ± 12 J/K/mol
369.12 K, Small sample (50 mg) DSC	357.9 ± 12 J/K/mol
372.13 K, Small sample (50 mg) DSC	359.6 ± 12 J/K/mol
375.14 K, Small sample (50 mg) DSC	361.4 ± 12 J/K/mol
378.12 K, Small sample (50 mg) DSC	363 ± 12 J/K/mol
381.14 K, Small sample (50 mg) DSC	364.4 ± 12 J/K/mol
384.12 K, Small sample (50 mg) DSC	365.8 ± 12 J/K/mol
387.13 K, Small sample (50 mg) DSC	366.9 ± 12 J/K/mol
390.11 K, Small sample (50 mg) DSC	367.8 ± 12 J/K/mol
393.12 K, Small sample (50 mg) DSC	368.7 ± 12 J/K/mol
396.14 K, Small sample (50 mg) DSC	369.4 ± 12 J/K/mol
399.12 K, Small sample (50 mg) DSC	370 ± 12 J/K/mol
402.13 K, Small sample (50 mg) DSC	371 ± 12 J/K/mol
405.12 K, Small sample (50 mg) DSC	371.6 ± 12 J/K/mol
408.13 K, Small sample (50 mg) DSC	371.9 ± 12 J/K/mol
411.11 K, Small sample (50 mg) DSC	372.3 ± 12 J/K/mol
414.12 K, Small sample (50 mg) DSC	372.6 ± 12 J/K/mol
417.13 K, Small sample (50 mg) DSC	372.9 ± 12 J/K/mol
420.12 K, Small sample (50 mg) DSC	373.1 ± 12 J/K/mol
423.13 K, Small sample (50 mg) DSC	373.2 ± 12 J/K/mol
426.11 K, Small sample (50 mg) DSC	373.2 ± 12 J/K/mol
429.19 K, Small sample (50 mg) DSC	373.2 ± 12 J/K/mol
432.31 K, Small sample (50 mg) DSC	373.2 ± 12 J/K/mol
435.12 K, Small sample (50 mg) DSC	373.2 ± 12 J/K/mol
438.13 K, Small sample (50 mg) DSC	373 ± 12 J/K/mol
441.14 K, Small sample (50 mg) DSC	372.8 ± 12 J/K/mol
444.13 K, Small sample (50 mg) DSC	372.8 ± 12 J/K/mol
447.14 K, Small sample (50 mg) DSC	372.7 ± 12 J/K/mol
450.12 K, Small sample (50 mg) DSC	372.5 ± 12 J/K/mol
453.13 K, Small sample (50 mg) DSC	372.6 ± 12 J/K/mol
456.14 K, Small sample (50 mg) DSC	372.6 ± 12 J/K/mol
459.13 K, Small sample (50 mg) DSC	372.6 ± 12 J/K/mol
462.14 K, Small sample (50 mg) DSC	373 ± 12 J/K/mol
465.12 K, Small sample (50 mg) DSC	373.5 ± 12 J/K/mol
468.14 K, Small sample (50 mg) DSC	374.1 ± 12 J/K/mol
471.14 K, Small sample (50 mg) DSC	374.6 ± 12 J/K/mol

From the NIST ThermoML archive (doi:10.1016/j.tca.2014.10.002)
